Reference: patent US20230167062A1, “AMIDE COMPOUND CONTAINING SUBSTITUTED ACETOPHENONE STRUCTURAL FRAGMENTS AND PREPARATION METHOD AND APPLICATION THEREOF” (SHENYANG SINOCHEM AGROCHEMICALS R&D CO., LTD., priority 2019, published 2023)

Assays:
cucumber anthracnose = assay: In vivo protection activity against cucumber anthracnose (live pot determination); conditions: dose of 400 ppm
Description: (§1) The test of in vivo protection effect is conducted on various fungal diseases of plants through samples of the compounds of the present invention. The determination results of the fungal activity are shown in the following embodiments.
(§2) The determination method is as follows: the to-be-determined sample of the compound of general formula I obtained above was dissolved with a small amount of solvent (the type of the solvent is, for example, acetone, methanol, DMF, etc., and is selected according to the dissolving ability to the sample; and the volume ratio of the solvent amount to the liquid spray amount is equal to or less than 0.05) by a live pot determination method, and diluted with water containing 0.1% Tween 80 to prepare to-be-determined liquid with required concentration. On a crop sprayer, the to-be-determined liquid was sprayed onto disease host plants (the host plants are standard potted seedlings cultivated in a greenhouse), and the disease was inoculated after 24 hours. According to the characteristics of the disease, the diseased plants that need to be cultivated under temperature control and moisturizing were inoculated and then placed in an artificial climate chamber for cultivation. […] After full onset through control (usually one week), the disease prevention effect of the compound was evaluated.

wheat powdery mildew = assay: In vivo protection activity against wheat powdery mildew (live pot determination); conditions: for control effects on wheat powdery mildew: dose of 400 ppm
Description: as §1, §2

cucumber downy mildew = assay: In vivo protection activity against cucumber downy mildew (live pot determination); conditions: for control effects, Cucumber downy mildew: 400 ppm (Table 2); for control effects on cucumber downy mildew: dose of 400 ppm, spray, inoculated after 24 hours
Description: as §1, §2

corn rust = assay: In vivo protection activity against corn rust (live pot determination); conditions: for control effects, Corn rust: 400 ppm (Table 4); for control effects on corn rust: dose of 400 ppm
Description: as §1, §2

cucumber botrytis = assay: In vivo protection activity against cucumber botrytis (live pot determination); conditions: 200 ppm
Description: as §1, §2

tomato botrytis = assay: In vivo protection activity against tomato botrytis (live pot determination)
Description: as §1, §2

Compound: Cc1cc(OC(C)C)ccc1C(=O)C(C)(C)NC(=O)c1cccnc1C(F)(F)F [CK1]
- control effects on cucumber anthracnose (cucumber anthracnose): 0%
- control effects, Wheat powdery mildew (wheat powdery mildew; 400 ppm (Table 3)): 85
- control effects on wheat powdery mildew (wheat powdery mildew): 85%
- control effects, Cucumber downy mildew (cucumber downy mildew): 0
- control effects on cucumber downy mildew (cucumber downy mildew): 0%
- control effects, Corn rust (corn rust): 0
- control effects on corn rust (corn rust): 0%
- Control effects on cucumber botrytis (%) (cucumber botrytis): 0%

Compound: Cc1cc(OC(C)C)ccc1C(=O)C(C)(C)NC(=O)c1cccnc1Cl [CK2]
- control effects on cucumber anthracnose (cucumber anthracnose): 0%
- control effects, Wheat powdery mildew (wheat powdery mildew; 400 ppm (Table 3)): 85
- control effects on wheat powdery mildew (wheat powdery mildew): 85%
- control effects, Cucumber downy mildew (cucumber downy mildew): 0
- control effects on cucumber downy mildew (cucumber downy mildew): 0%
- Control effects on tomato botrytis (%) (tomato botrytis; 25 ppm): 0%
- Control effects on tomato botrytis (%) (tomato botrytis; 100 ppm): 20%
- control effects, Corn rust (corn rust): 0
- control effects on corn rust (corn rust): 0%
- Control effects on cucumber botrytis (%) (cucumber botrytis): 0%

Compound: Cc1cc(OC(C)C)ccc1C(=O)C(C)(C)NC(=O)c1cn(C)nc1C(F)(F)F [CK3]
- control effects on cucumber anthracnose (cucumber anthracnose): 0%
- control effects, Wheat powdery mildew (wheat powdery mildew; 400 ppm (Table 3)): 85
- control effects on wheat powdery mildew (wheat powdery mildew): 85%
- control effects, Cucumber downy mildew (cucumber downy mildew): 0
- control effects on cucumber downy mildew (cucumber downy mildew): 0%
- Control effects on tomato botrytis (%) (tomato botrytis; 25 ppm): 20%
- Control effects on tomato botrytis (%) (tomato botrytis; 100 ppm): 35%
- control effects, Corn rust (corn rust): 0
- control effects on corn rust (corn rust): 0%
- Control effects on cucumber botrytis (%) (cucumber botrytis): 60%

Compound: Cc1cc(OC(C)C)ccc1C(=O)C(C)(C)NC(=O)c1c(C(F)(F)F)nn(C)c1Cl [CK4]
- control effects on cucumber anthracnose (cucumber anthracnose): 0%
- control effects, Wheat powdery mildew (wheat powdery mildew; 400 ppm (Table 3)): 75
- control effects on wheat powdery mildew (wheat powdery mildew): 75%
- control effects, Cucumber downy mildew (cucumber downy mildew): 0
- control effects on cucumber downy mildew (cucumber downy mildew): 0%
- Control effects on tomato botrytis (%) (tomato botrytis; 25 ppm): 0%
- Control effects on tomato botrytis (%) (tomato botrytis; 100 ppm): 0%
- control effects, Corn rust (corn rust): 0
- control effects on corn rust (corn rust): 0%
- Control effects on cucumber botrytis (%) (cucumber botrytis): 25%

Compound: Cc1cc(OC(C)C)ccc1C(=O)C(C)(C)NC(=O)c1cccnc1C(F)F [Compound I-2]
- melting point: 96.9 °C
- control effects, Wheat powdery mildew (wheat powdery mildew; 100 ppm (Table 3)): 100
- control effects, Wheat powdery mildew (wheat powdery mildew; 400 ppm (Table 3)): 100
- control effects, Cucumber downy mildew (cucumber downy mildew): 40
